The assay has as its system male ddY mouse. The assay is described as follows: Analgesic activity test by mouse acetic acid writhing method. It counts as in vivo. Conditions: subcutaneous, 15 minutes before i.p. 0.6% acetic acid, dosage to halve the number of writhing response. How it is done:
To each male ddY mouse, each test compound or the vehicle was subcutaneously administered in an administration volume of 0.1 mL/10 g body weight. Fifteen minutes later, 0.1 mL/10 g body weight of aqueous 0.6% (v/v) acetic acid solution was intraperitoneally administered. From 10 minutes after the administration of the acetic acid solution, the number of writhing response (i.e., the behavior to bend the body backward and/or twist the body) during 10 minutes was counted, and the analgesic activity was evaluated based on the number of writhing response. […] 10% Aqueous dimethylsulfoxide (DMSO) was used as a vehicle for test compounds 1, 2, 3, 4, 5, 6, 7, 8, 9, 10, 11, 12, 13, 14, 15, 16, 17, 18, 19, 20, 21 and 22. 0.1% Citric acid/aqueous 5% xylitol was used as a vehicle for test compounds 10f.
A general note: In writhing tests, fewer writhes than in controls are read as antinociception.

Where a name gives a salt, the structure may show the parent alone. Read-outs that look alike come from different tables or passages of the source. A value given as a limit tells only on which side of the number the result lay.

The term ED50 denotes the dose that gives a 50% effect, or the effect in half of the subjects.

As to `O=C1c2cccc(F)c2C(=O)N1[C@@H]1CC[C@@]2(O)[C@H]3Cc4ccc(O)c5c4[C@@]2(CCN3CC2CC2)[C@H]1O5` [Compound 14, N-(17-cyclopropylmethyl-4,5α-epoxy-3,14-dihydroxy-morphinan-6β-yl)-3-fluorophthalimide.tartaric acid salt], under “Mus musculus, read-out: ED50”, the ED50 worked out at 0.034 mg/kg.

As for `O=C1c2cc3ccccc3cc2C(=O)N1[C@@H]1CC[C@@]2(O)[C@H]3Cc4ccc(O)c5c4[C@@]2(CCN3CC2CC2)[C@H]1O5` [Compound 16, N-(17-cyclopropylmethyl-4,5α-epoxy-3,14-dihydroxy-morphinan-6β-yl)naphthalenedicarboxylic imide.hydrochloric acid salt], for the setting “Mus musculus, read-out: ED50”, the median effective dose (ED50) was 0.31 mg/kg.

On to `O=C1c2ccc(F)cc2C(=O)N1[C@@H]1CC[C@@]2(O)[C@H]3Cc4ccc(O)c5c4[C@@]2(CCN3CC2CC2)[C@H]1O5` [Compound 13, N-(17-cyclopropylmethyl-4,5α-epoxy-3,14-dihydroxy-morphinan-6β-yl)-4-fluorophthalimide.tartaric acid salt], for which, for the setting “Mus musculus, read-out: ED50”, the 50% effective dose (ED50) was determined as 0.037 mg/kg.

As for `Cl.O=C1CCCN1[C@@H]1CC[C@@]2(O)[C@H]3Cc4ccc(O)c5c4[C@@]2(CCN3CC2CC2)[C@H]1O5` [Compound 1, 1-(17-cyclopropylmethyl-4,5α-epoxy-3,14-dihydroxy-morphinan-6β-yl)pyrrolidine-2-one-hydrochloric acid salt], for the setting “Mus musculus, read-out: ED50”, the ED50 is 2.62 mg/kg.

In the case of `O=C1c2ccc(Cl)cc2C(=O)N1[C@@H]1CC[C@@]2(O)[C@H]3Cc4ccc(O)c5c4[C@@]2(CCN3CC2CC2)[C@H]1O5` [Compound 12, N-(17-cyclopropylmethyl-4,5α-epoxy-3,14-dihydroxy-morphinan-6β-yl)-4-chlorophthalimide.tartaric acid salt], the 50% effective dose (ED50) (Mus musculus, read-out: ED50) stood at 0.29 mg/kg.

Regarding `Cl.O=C1CCCN1[C@H]1CC[C@@]2(O)[C@H]3Cc4ccc(O)c5c4[C@@]2(CCN3CC2CC2)[C@H]1O5` [Compound 2, 1-(17-cyclopropylmethyl-4,5α-epoxy-3,14-dihydroxy-morphinan-6α-yl)pyrrolidine-2-one-hydrochloric acid salt], for the setting “Mus musculus, read-out: ED50”, the median effective dose (ED50) came to 0.95 mg/kg.

`O=C1C=CC(=O)N1[C@@H]1CC[C@@]2(O)[C@H]3Cc4ccc(O)c5c4[C@@]2(CCN3CC2CC2)[C@H]1O5` [Compound 22, N-(17-cyclopropylmethyl-4,5α-epoxy-3,14-dihydroxy-morphinan-6β-yl)-maleic imide.tartaric acid salt]: under “Mus musculus, read-out: ED50”, the 50% effective dose (ED50) worked out at 2.18 mg/kg.

On to `O=C1C(Cc2ccccc2)CCN1[C@@H]1CC[C@@]2(O)[C@H]3Cc4ccc(O)c5c4[C@@]2(CCN3CC2CC2)[C@H]1O5` (stereo partly drawn) [Compound 3, 1-(17-cyclopropylmethyl-4,5α-epoxy-3,14-dihydroxy-morphinan-6β-yl)-3-benzyl-pyrrolidine-2-one.tartaric acid salt], for which the 50% effective dose (ED50) (Mus musculus, read-out: ED50) came to 0.28 mg/kg.

On to `O=C1CCC(=O)N1[C@@H]1CC[C@@]2(O)[C@H]3Cc4ccc(O)c5c4[C@@]2(CCN3CC2CC2)[C@H]1O5` [Compound 21, N-(17-cyclopropylmethyl-4,5α-epoxy-3,14-dihydroxy-morphinan-6β-yl)-succinic imide.tartaric acid salt], for which the ED50 (Mus musculus, read-out: ED50) amounted to 3.37 mg/kg.

Regarding `CCC/C=C1\CC(=O)N([C@@H]2CC[C@@]3(O)[C@H]4Cc5ccc(O)c6c5[C@@]3(CCN4CC3CC3)[C@H]2O6)C1=O` [Compound 6, N-(17-cyclopropylmethyl-4,5α-epoxy-3,14-dihydroxy-morphinan-6β-yl)-2-butylidene succinic imide.tartaric acid salt], the median effective dose (ED50) (Mus musculus, read-out: ED50) worked out at 0.48 mg/kg.

`O=C1c2ccccc2C(=O)N1[C@@H]1CC[C@@]2(O)[C@H]3Cc4ccc(O)c5c4[C@@]2(CCN3CC2CC2)[C@H]1O5` [Compound 10, N-(17-cyclopropylmethyl-4,5α-epoxy-3,14-dihydroxymorphinan-6β-yl)-phthalimide.hydrochloric acid salt]: under “Mus musculus, read-out: ED50”, the 50% effective dose (ED50) is 0.031 mg/kg.

`O=C1c2ccccc2CN1[C@@H]1CC[C@@]2(O)[C@H]3Cc4ccc(O)c5c4[C@@]2(CCN3CC2CC2)[C@H]1O5` [Compound 5, 2-(17-cyclopropylmethyl-4,5α-epoxy-3,14-dihydroxy-morphinan-6β-yl)-2,3-dihydroisoindol-1-one.tartaric acid salt]: the 50% effective dose (ED50) (Mus musculus, read-out: ED50) stood at 0.071 mg/kg.

For the compound `O=C1c2cc(Cl)c(Cl)cc2C(=O)N1[C@@H]1CC[C@@]2(O)[C@H]3Cc4ccc(O)c5c4[C@@]2(CCN3CC2CC2)[C@H]1O5` [Compound 17, N-[17-(cyclopropylmethyl)-4,5α-epoxy-3,14-dihydroxymorphinan-6β-yl]]-4,5-dichlorophthalimide.tartaric acid salt], the ED50 (Mus musculus, read-out: ED50) is 0.27 mg/kg.

`Cc1ccc2c(c1)C(=O)N([C@@H]1CC[C@@]3(O)[C@H]4Cc5ccc(O)c6c5[C@@]3(CCN4CC3CC3)[C@H]1O6)C2=O` [Compound 11, N-(17-cyclopropylmethyl-4,5α-epoxy-3,14-dihydroxy-morphinan-6β-yl)-4-methylphthalimide.hydrochloric acid salt]: for the setting “Mus musculus, read-out: ED50”, the median effective dose (ED50) was found to be 0.045 mg/kg.

Regarding `O=C(O)C(O)C(O)C(=O)O.O=C1c2ccccc2C(=O)N1[C@@H]1CC[C@@]2(O)[C@H]3Cc4ccc(O)c5c4[C@@]2(CCN3CC2CC2)[C@H]1O5` [Compound 18, N-(17-cyclopropylmethyl-4,5α-epoxy-3,14-dihydroxy-morphinan-6β-yl)-phthalimide.tartaric acid salt], the 50% effective dose (ED50) turned out to be 0.019 mg/kg.

Consider `O=C(O)C(O)C(O)C(=O)O.Oc1ccc2c3c1O[C@H]1[C@H](N4CCCC4)CC[C@@]4(O)[C@@H](C2)N(CC2CC2)CC[C@]314` [Compound 20, 17-cyclopropylmethyl-4,5α-epoxy-6β-(pyrrolidine-1-yl)-morphinan-3,14-diol.tartaric acid salt, reference compound], for which the ED50 is >10 mg/kg.

As for `O=C1C(Cc2ccccc2)CCN1[C@H]1CC[C@@]2(O)[C@H]3Cc4ccc(O)c5c4[C@@]2(CCN3CC2CC2)[C@H]1O5` (mixture of isomers) [Compound 4, 1-(17-cyclopropylmethyl-4,5α-epoxy-3,14-dihydroxymorphinan-6α-yl)-3-benzyl-pyrrolidine-2-one (diastereomer mixture).tartaric acid salt], the ED50 (Mus musculus, read-out: ED50) was 0.26 mg/kg.

Regarding `Cc1cccc2c1C(=O)N([C@@H]1CC[C@@]3(O)[C@H]4Cc5ccc(O)c6c5[C@@]3(CCN4CC3CC3)[C@H]1O6)C2=O` [Compound 15, N-(17-cyclopropylmethyl-4,5α-epoxy-3,14-dihydroxy-morphinan-6β-yl)-3-methylphthalimide.tartaric acid salt], the ED50 (Mus musculus, read-out: ED50) was found to be 0.03 mg/kg.

Take `C=CCN1CC[C@]23c4c5ccc(O)c4O[C@H]2[C@@H](N2C(=O)c4cccc(F)c4C2=O)CC[C@@]3(O)[C@H]1C5` [Compound 8, N-(17-allyl-4,5α-epoxy-3,14-dihydroxy-morphinan-6α-yl)-3-fluorophthal-imide.tartaric acid salt]: for the setting “Mus musculus, read-out: ED50”, the 50% effective dose (ED50) is 0.03 mg/kg.

Regarding `C=CCN1CC[C@]23c4c5ccc(O)c4O[C@H]2[C@@H](N2C(=O)c4ccccc4C2=O)CC[C@@]3(O)[C@H]1C5` [Compound 9, N-(17-allyl-4,5α-epoxy-3,14-dihydroxymorphinan-6α-yl)-phthalimide.tartaric acid salt], for the setting “Mus musculus, read-out: ED50”, the ED50 stood at 0.14 mg/kg.

`C=CCN1CC[C@]23c4c5ccc(O)c4O[C@H]2[C@H](N2C(=O)c4ccc(F)cc4C2=O)CC[C@@]3(O)[C@H]1C5` [Compound 7, N-(17-allyl-4,5α-epoxy-3,14-dihydroxymorphinan-6β-yl)-4-fluorophthalimide.tartaric acid salt]: where the note is “Mus musculus, read-out: ED50”, the ED50 worked out at 0.033 mg/kg.

For `O=C(O)C(O)C(O)C(=O)O.O=C1C2=C(CCCC2)C(=O)N1[C@@H]1CC[C@@]2(O)[C@H]3Cc4ccc(O)c5c4[C@@]2(CCN3CC2CC2)[C@H]1O5` [Compound 19, N-(17-cyclopropylmethyl-4,5α-epoxy-3,14-dihydroxy-morphinan-6β-yl)-3,4,5,6-tetrahydrophthalimide.tartaric acid salt], the ED50 came out at 0.032 mg/kg.

Source of the values: patent publication US8470845B2, “Analgesic and methods of treating pain” (Toray Industries, Inc., priority 2004, dated 2013).
